In the NIST ThermoML archive (doi:10.1021/je0498208):
± gives the expanded uncertainty stated by the source.

Experiments:
[1] = Liquid; for viscosity: 101 kPa; for mass density: 101.3 kPa
[2] = xn = mol fraction of the nth substance listed; settings: Liquid, x2 = 0; for viscosity: 101 kPa; for mass density: 101.3 kPa

Row | SMILES | viscosity ([1]; 298.15 K) [mPa·s] | viscosity ([1]; 303.15 K) [mPa·s] | viscosity ([1]; 313.15 K) [mPa·s] | viscosity ([1]; 323.15 K) [mPa·s] | mass density ([1]; 323.15 K) [kg/m3] | viscosity ([1]; 333.15 K) [mPa·s] | mass density ([1]; 333.15 K) [kg/m3] | viscosity ([1]; 343.15 K) [mPa·s] | mass density ([1]; 343.15 K) [kg/m3] | other results
1 | O=CN1CCOCC1 [N-formylmorpholine] | 7.87 ± 0.22 | 6.75 ± 0.2 | 5.13 ± 0.15 | 4.03 ± 0.12 | 1124.82 ± 1.2 | 3.25 ± 0.1 | 1116.11 ± 1.1 | 2.68 ± 0.08 | 1107.39 ± 1.1 | mass density ([1]; 298.15 K): 1146.62 ± 1.2 kg/m3; mass density ([1]; 303.15 K): 1142.26 ± 1.2 kg/m3; mass density ([1]; 313.15 K): 1133.53 ± 1.2 kg/m3
2 | O [water] | 0.89 ± 0.027 | 0.7976 ± 0.025 | 0.6531 ± 0.02 | 0.547 ± 0.017 | 988.04 ± 0.13 | 0.466 ± 0.015 | 983.12 ± 0.13 | 0.4049 ± 0.013 | 977.77 ± 0.13 | –
3 | O [water] + O=CN1CCOCC1 | – | – | – | – | – | – | – | – | – | viscosity ([2]; 298.15 K): 0.89 ± 0.027 mPa·s; viscosity ([2]; 303.15 K): 0.7976 ± 0.025 mPa·s; viscosity ([2]; 313.15 K): 0.6531 ± 0.02 mPa·s; viscosity ([2]; 323.15 K): 0.547 ± 0.017 mPa·s; mass density ([2]; 323.15 K): 988.04 ± 0.13 kg/m3; viscosity ([2]; 333.15 K): 0.466 ± 0.015 mPa·s; mass density ([2]; 333.15 K): 983.12 ± 0.13 kg/m3; viscosity ([2]; 343.15 K): 0.4049 ± 0.013 mPa·s; mass density ([2]; 343.15 K): 977.77 ± 0.13 kg/m3
